Test results: the supplement of paper PMC10307832

What was measured:
Assay in all cases: relative viability (nuclei count vs DMSO), 5 days (fraction); higher = more cells survive
EMC-BAC-2 = test system: EMC-BAC-2
Procedure, shortened: (§1)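 After 5 days of treatment, lung cancer cells in 1536-well plates were fixed and stained in a single step (final 0.05% Triton X-100, 1% formaldehyde, 1 ug/ml Hoechst) and their nuclei counted on 4× images. Treatment had been applied by pin tool the day after seeding as one drug alone or as a fixed anchor-drug dose with five library-drug doses (not always all listed) in √10 steps. Relative viability is the nuclei count of treated wells divided by that of vehicle wells, and values are medians of duplicate plates.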

EPLC-272H = test system: EPLC-272H
Procedure, shortened: as §1

H3255 = test system: H3255
Procedure, shortened: as §1

HOP-62 = test system: HOP-62
Procedure, shortened: as §1

LCLC-97TM1 = test system: LCLC-97TM1
Procedure, shortened: as §1

LXF-289 = test system: LXF-289
Procedure, shortened: as §1

NCI-H1563 = test system: NCI-H1563
Procedure, shortened: as §1

NCI-H1734 = test system: NCI-H1734
Procedure, shortened: as §1

NCI-H1915 = test system: NCI-H1915
Procedure, shortened: as §1

NCI-H1993 = test system: NCI-H1993
Procedure, shortened: as §1

NCI-H2009 = test system: NCI-H2009
Procedure, shortened: as §1

NCI-H2023 = test system: NCI-H2023
Procedure, shortened: as §1

NCI-H2085 = test system: NCI-H2085
Procedure, shortened: as §1

NCI-H2126 = test system: NCI-H2126
Procedure, shortened: as §1

NCI-H2347 = test system: NCI-H2347
Procedure, shortened: as §1

NCI-H322M = test system: NCI-H322M
Procedure, shortened: as §1

NCI-H647 = test system: NCI-H647
Procedure, shortened: as §1

NCI-H661 = test system: NCI-H661
Procedure, shortened: as §1

NCI-H727 = test system: NCI-H727
Procedure, shortened: as §1

PC-14 = test system: PC-14
Procedure, shortened: as §1

SK-LU-1 = test system: SK-LU-1
Procedure, shortened: as §1

SW 1573 = test system: SW 1573
Procedure, shortened: as §1

**Q.** Which results are given for `CCN(CC)CCCCNc1ncc2cc(-c3cc(OC)cc(OC)c3)c(NC(=O)NC(C)(C)C)nc2n1` + CCNC(=O)c1noc(-c2cc(C(C)C)c(O)cc2O)c1-c1ccc(CN2CCOCC2)cc1 [Luminespib] (partner 0.01 µM)?
**A.** relative viability (EMC-BAC-2; first compound 0.01 µM): 1.27; relative viability (EMC-BAC-2; first compound 0.03162 µM): 1.16; relative viability (EMC-BAC-2; first compound 0.1 µM): 1.08; relative viability (EMC-BAC-2; first compound 0.3162 µM): 1.35; relative viability (EMC-BAC-2; first compound 1 µM): 1.05; relative viability (EPLC-272H; first compound 0.01 µM): 0.26; relative viability (EPLC-272H; first compound 0.03162 µM): 0.266; relative viability (EPLC-272H; first compound 0.1 µM): 0.204; relative viability (EPLC-272H; first compound 0.3162 µM): 0.219; relative viability (EPLC-272H; first compound 1 µM): 0.329; relative viability (H3255; first compound 0.01 µM): 0.73; relative viability (H3255; first compound 0.03162 µM): 0.824; relative viability (H3255; first compound 0.1 µM): 0.915; relative viability (H3255; first compound 0.3162 µM): 0.992; relative viability (H3255; first compound 1 µM): 0.833; relative viability (HOP-62; first compound 0.01 µM): 1.12; relative viability (HOP-62; first compound 0.03162 µM): 0.986; relative viability (HOP-62; first compound 0.1 µM): 1.02; relative viability (HOP-62; first compound 0.3162 µM): 0.961; relative viability (HOP-62; first compound 1 µM): 0.888; relative viability (LCLC-97TM1; first compound 0.01 µM): 0.743; relative viability (LCLC-97TM1; first compound 0.03162 µM): 0.867; relative viability (LCLC-97TM1; first compound 0.1 µM): 1.02; relative viability (LCLC-97TM1; first compound 0.3162 µM): 0.818; relative viability (LCLC-97TM1; first compound 1 µM): 0.775; relative viability (LXF-289; first compound 0.01 µM): 0.727; relative viability (LXF-289; first compound 0.03162 µM): 0.668; relative viability (LXF-289; first compound 0.1 µM): 0.699; relative viability (LXF-289; first compound 0.3162 µM): 0.801; relative viability (LXF-289; first compound 1 µM): 0.577; relative viability (NCI-H1563; first compound 0.01 µM): 0.537; relative viability (NCI-H1563; first compound 0.03162 µM): 0.532; relative viability (NCI-H1563; first compound 0.1 µM): 0.549; relative viability (NCI-H1563; first compound 0.3162 µM): 0.597; relative viability (NCI-H1563; first compound 1 µM): 0.545; relative viability (NCI-H1734; first compound 0.01 µM): 0.0982; relative viability (NCI-H1734; first compound 0.03162 µM): 0.189; relative viability (NCI-H1734; first compound 0.1 µM): 0.19; relative viability (NCI-H1734; first compound 0.3162 µM): 0.197; relative viability (NCI-H1734; first compound 1 µM): 0.178; relative viability (NCI-H1915; first compound 0.01 µM): 0.885; relative viability (NCI-H1915; first compound 0.03162 µM): 0.863; relative viability (NCI-H1915; first compound 0.1 µM): 1.02; relative viability (NCI-H1915; first compound 0.3162 µM): 0.932; relative viability (NCI-H1915; first compound 1 µM): 0.711; relative viability (NCI-H1993; first compound 0.01 µM): 0.401; relative viability (NCI-H1993; first compound 0.03162 µM): 0.715; relative viability (NCI-H1993; first compound 0.1 µM): 0.771; relative viability (NCI-H1993; first compound 0.3162 µM): 0.97; relative viability (NCI-H1993; first compound 1 µM): 0.666; relative viability (NCI-H2009; first compound 0.01 µM): 1.15; relative viability (NCI-H2009; first compound 0.03162 µM): 0.983; relative viability (NCI-H2009; first compound 0.1 µM): 1.13; relative viability (NCI-H2009; first compound 0.3162 µM): 1.1; relative viability (NCI-H2009; first compound 1 µM): 0.931; relative viability (NCI-H2023; first compound 0.01 µM): 0.663; relative viability (NCI-H2023; first compound 0.03162 µM): 1.05; relative viability (NCI-H2023; first compound 0.1 µM): 0.745; relative viability (NCI-H2023; first compound 0.3162 µM): 0.833; relative viability (NCI-H2023; first compound 1 µM): 0.545; relative viability (NCI-H2085; first compound 0.01 µM): 0.419; relative viability (NCI-H2085; first compound 0.03162 µM): 0.424; relative viability (NCI-H2085; first compound 0.1 µM): 0.402; relative viability (NCI-H2085; first compound 0.3162 µM): 0.405; relative viability (NCI-H2085; first compound 1 µM): 0.458; relative viability (NCI-H2126; first compound 0.01 µM): 0.985; relative viability (NCI-H2126; first compound 0.03162 µM): 0.876; relative viability (NCI-H2126; first compound 0.1 µM): 0.953; relative viability (NCI-H2126; first compound 0.3162 µM): 0.92; relative viability (NCI-H2126; first compound 1 µM): 0.898; relative viability (NCI-H2347; first compound 0.01 µM): 0.675; relative viability (NCI-H2347; first compound 0.03162 µM): 0.341; relative viability (NCI-H2347; first compound 0.1 µM): 0.447; relative viability (NCI-H2347; first compound 0.3162 µM): 0.372; relative viability (NCI-H2347; first compound 1 µM): 0.526; relative viability (NCI-H322M; first compound 0.01 µM): 0.884; relative viability (NCI-H322M; first compound 0.03162 µM): 0.854; relative viability (NCI-H322M; first compound 0.1 µM): 0.859; relative viability (NCI-H322M; first compound 0.3162 µM): 0.988; relative viability (NCI-H322M; first compound 1 µM): 0.799; relative viability (NCI-H647; first compound 0.01 µM): 0.163; relative viability (NCI-H647; first compound 0.03162 µM): 0.205; relative viability (NCI-H647; first compound 0.1 µM): 0.222; relative viability (NCI-H647; first compound 0.3162 µM): 0.205; relative viability (NCI-H647; first compound 1 µM): 0.148; relative viability (NCI-H661; first compound 0.01 µM): 0.922; relative viability (NCI-H661; first compound 0.03162 µM): 0.964; relative viability (NCI-H661; first compound 0.1 µM): 0.968; relative viability (NCI-H661; first compound 0.3162 µM): 0.982; relative viability (NCI-H661; first compound 1 µM): 0.925; relative viability (NCI-H727; first compound 0.01 µM): 0.251; relative viability (NCI-H727; first compound 0.03162 µM): 0.323; relative viability (NCI-H727; first compound 0.1 µM): 0.28; relative viability (NCI-H727; first compound 0.3162 µM): 0.278; relative viability (NCI-H727; first compound 1 µM): 0.327; relative viability (PC-14; first compound 0.01 µM): 0.138; relative viability (PC-14; first compound 0.03162 µM): 0.126; relative viability (PC-14; first compound 0.1 µM): 0.176; relative viability (PC-14; first compound 0.3162 µM): 0.141; relative viability (PC-14; first compound 1 µM): 0.138; relative viability (SK-LU-1; first compound 0.01 µM): 0.199; relative viability (SK-LU-1; first compound 0.03162 µM): 0.197; relative viability (SK-LU-1; first compound 0.1 µM): 0.197; relative viability (SK-LU-1; first compound 0.3162 µM): 0.236; relative viability (SK-LU-1; first compound 1 µM): 0.168; relative viability (SW 1573; first compound 0.01 µM): 0.238; relative viability (SW 1573; first compound 0.03162 µM): 0.297; relative viability (SW 1573; first compound 0.1 µM): 0.239; relative viability (SW 1573; first compound 0.3162 µM): 0.177; relative viability (SW 1573; first compound 1 µM): 0.172
